Bounds are passed on as bounds.

The source of these data is paper PMC12013494, “Covalent inhibition of the SARS-CoV-2 NiRAN domain via an active-site cysteine” (The Journal of Biological Chemistry, 2025).

Assay [1] concerns the target T1, SARS-CoV-2 nsp12 NiRAN domain (Severe acute respiratory syndrome coronavirus 2, UniProt P0DTD1). The assay can be described thus: biochemical. The following applies: for IC50 / IC50 for NiRAN-dependent AMPylation of nsp9: n = 4; for IC50: read-out: IC50 for NiRAN-dependent AMPylation of nsp9.
In a further assay the target is nsp12 (Severe acute respiratory syndrome coronavirus 2, UniProt P0DTD1). Type of assay: binding, SARS-CoV-2.
The target in assay [2] is T1, SARS-CoV-2 nsp12 NiRAN domain. Type of assay: biochemical.
A further assay has as its target SARS-CoV-2 nsp12 (Severe acute respiratory syndrome coronavirus 2, UniProt P0DTD1). Type of assay: binding.
A further assay addresses nsp12 RdRp (Severe acute respiratory syndrome coronavirus 2, UniProt P0DTD1). Type of assay: biochemical, SARS-CoV-2.
For the next assay, the system named is SARS-CoV-2-Wu-1-zsGreen. The assay can be described thus: microbe, parasite or virus in culture. Type of assay: cell-based. The following applies: for EC50: Severe acute respiratory syndrome coronavirus 2, read-out: EC50 for viral replication (infectivity).
For a further assay, the target named is human SelO (Homo sapiens, UniProt Q9BVL4, U667C). Type of assay: binding.
The target of assay [3] is T2, Flag-nsp12 (Severe acute respiratory syndrome coronavirus 2, UniProt P0DTD1). Type of assay: cell-based, SARS-CoV-2.
The next assay deals with SARS-CoV-1 nsp12 (Severe acute respiratory syndrome coronavirus, UniProt P0C6X7). Type of assay: binding.
The next assay has as its target MERS nsp12 (Middle East respiratory syndrome-related coronavirus, UniProt K9N7C7). Type of assay: binding, MERS-CoV.
The target of assay [4] is T2, Flag-nsp12. Type of assay: cell-based, SARS-CoV-2. The source holds these as a separate data set.
A further assay relates to SARS-CoV-2. To be noted: cited from earlier work.
The target in the next assay is SARS-CoV-2 main protease. The following applies: cited from earlier work.
The test system of a further assay is NiRAN. The following applies: cited from earlier work.

MERS nsp12, sequence (K9N7C7 4378-5310 limits assumed): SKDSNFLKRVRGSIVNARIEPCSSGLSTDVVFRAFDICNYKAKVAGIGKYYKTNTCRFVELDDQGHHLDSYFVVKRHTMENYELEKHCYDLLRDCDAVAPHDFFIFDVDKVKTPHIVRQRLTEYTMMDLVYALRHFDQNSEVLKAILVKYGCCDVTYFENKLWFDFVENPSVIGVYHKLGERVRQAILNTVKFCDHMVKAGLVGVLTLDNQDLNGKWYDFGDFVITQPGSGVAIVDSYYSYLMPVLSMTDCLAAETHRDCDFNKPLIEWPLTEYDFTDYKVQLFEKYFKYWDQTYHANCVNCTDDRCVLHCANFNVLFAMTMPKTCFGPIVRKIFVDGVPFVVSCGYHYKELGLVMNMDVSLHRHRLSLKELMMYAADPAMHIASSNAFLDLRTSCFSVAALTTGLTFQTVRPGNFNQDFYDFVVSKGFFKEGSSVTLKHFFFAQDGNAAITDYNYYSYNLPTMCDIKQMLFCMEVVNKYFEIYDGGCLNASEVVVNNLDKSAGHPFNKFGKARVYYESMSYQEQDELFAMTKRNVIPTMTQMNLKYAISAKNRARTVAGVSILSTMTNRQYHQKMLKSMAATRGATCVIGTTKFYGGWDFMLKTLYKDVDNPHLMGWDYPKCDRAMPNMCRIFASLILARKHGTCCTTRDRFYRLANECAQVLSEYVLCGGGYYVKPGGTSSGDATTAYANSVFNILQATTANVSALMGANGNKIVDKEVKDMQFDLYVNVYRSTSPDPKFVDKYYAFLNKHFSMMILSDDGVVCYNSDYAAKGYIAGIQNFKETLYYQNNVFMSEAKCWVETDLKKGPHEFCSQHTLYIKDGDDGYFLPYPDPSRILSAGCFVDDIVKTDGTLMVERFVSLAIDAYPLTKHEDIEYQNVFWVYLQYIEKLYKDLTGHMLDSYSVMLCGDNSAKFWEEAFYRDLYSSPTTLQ
human SelO, sequence (Q9BVL4 with tags, fused parts or gaps U667C limits assumed): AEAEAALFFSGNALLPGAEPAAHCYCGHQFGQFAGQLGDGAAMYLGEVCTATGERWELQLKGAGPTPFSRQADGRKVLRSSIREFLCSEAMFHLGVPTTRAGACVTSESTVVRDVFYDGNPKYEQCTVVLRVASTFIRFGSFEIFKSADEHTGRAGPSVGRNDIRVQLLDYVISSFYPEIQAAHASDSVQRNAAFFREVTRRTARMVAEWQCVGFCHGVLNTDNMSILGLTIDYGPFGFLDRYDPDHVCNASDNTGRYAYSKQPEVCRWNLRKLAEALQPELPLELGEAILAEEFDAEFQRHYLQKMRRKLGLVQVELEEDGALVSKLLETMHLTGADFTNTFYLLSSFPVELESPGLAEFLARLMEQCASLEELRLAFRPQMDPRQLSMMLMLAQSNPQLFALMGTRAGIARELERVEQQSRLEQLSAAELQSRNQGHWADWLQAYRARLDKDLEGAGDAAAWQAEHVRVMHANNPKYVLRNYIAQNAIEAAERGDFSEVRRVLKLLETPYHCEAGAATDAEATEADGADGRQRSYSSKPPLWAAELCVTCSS

For `O=c1cc(CCl)nc2ccc(Cl)cn12` [NCI-1], in assay [1], the IC50 was found to be 7.32 µM. For the same molecule, the “effect on thermal stability of nsp12” value on nsp12 is recorded as “increase in the thermal stability of nsp12”. Further, the “inhibition of NiRAN-dependent RNAylation of nsp9” value in [2] is recorded as “inhibition of NiRAN-dependent RNAylation of nsp9”. On SARS-CoV-2 nsp12, the “covalent binding to nsp12 (intact mass shift)” value is reported as “covalent addition”.

For `COC(=O)c1cnn2c(O)cc(CCl)nc12` [NCI-2, methyl 5-(chloromethyl)-7-hydroxypyrazolo[1,5-a]pyrimidine-3-carboxylate], in assay [1], the affinity, expressed as Ki, was 16.3 µM and the IC50 was 4.36 µM. In [1] (read-out: rate of inactivation constant kinact), the kinact was 0.0024 s⁻¹. Further, the kinact/KI in assay [1] (read-out: second order rate constant kinact/Ki) is 147 M⁻¹ s⁻¹. Moreover, on nsp12 RdRp, the “effect on nsp12 polymerase (RdRp) activity” value was “did not impact nsp12 polymerase activity”. Further, in the assay with SARS-CoV-2-Wu-1-zsGreen, the “concentration at which inhibition of viral replication was observed” value was 200 µM and the EC50 is over 200 µM. Also, the “effect on thermal stability of nsp12” value on nsp12 was “increase in the thermal stability of nsp12”. The “binding to SelO” value at human SelO is “fails to bind”. At Flag-nsp12 [3], the “RNAylation activity of Flag-nsp12 from treated cells” value is “marked reduction in its ability to RNAylate nsp9”. Also, the “covalent binding to SARS-CoV-1 nsp12” value at SARS-CoV-1 nsp12 is reported as “covalently binds”. Also, the “inhibition of NiRAN-dependent RNAylation of nsp9” value in assay [2] was “inhibition of NiRAN-dependent RNAylation of nsp9”. Besides, at SARS-CoV-2 nsp12, the “covalent binding to nsp12 (intact mass shift)” value is reported as “covalent addition”. Besides, at MERS nsp12, the “binding to MERS NiRAN (nsp12)” value is given as “fails to bind”.

On to `C#CCOC(=O)c1cnn2c(O)cc(CCl)nc12` [NCI-3, Prop-2-yn-1-yl 5-(chloromethyl)-7-hydroxypyrazolo[1,5-a]pyrimidine-3-carboxylate], for which, in assay [1], the IC50 turned out to be 10.4 µM. In addition, the “binding to nsp12 in cells (biotinylation after click reaction)” value on Flag-nsp12 [4] is recorded as “major biotinylated species corresponding to nsp12”.

For `C#CCNc1cc(CCl)nc2c(C(=O)OC)cnn12` [SW395929-1, Methyl 5-(chloromethyl)-7-(prop-2-yn-1-ylamino)pyrazolo[1,5-a]pyrimidine-3-carboxylate], in assay [1], the “IC50 for NiRAN-dependent AMPylation of nsp9” value (“IC50 … of nsp9” below) is “No activity up to 500 μM”.

Consider `O=C(O)c1cnn2c(O)cc(CCl)nc12` [SW396061-1, 5-(Chloromethyl)-7-hydroxypyrazolo[1,5-a]pyrimidine-3-carboxylic acid], for which the “IC50 … of nsp9” value in [1] is reported as “No activity up to 500 μM”.

With `C#CCNC(=O)c1cnn2c(O)cc(CCl)nc12` [SW396062-1, 5-(Chloromethyl)-7-hydroxy-N-(prop-2-yn-1-yl)pyrazolo[1,5-a]pyrimidine-3-carboxamide], the IC50 in [1] was over 500 µM.

`COC(=O)c1cnn2c(O)cc(CO)nc12` [SW396063-1, Methyl 7-hydroxy-5-(hydroxymethyl)pyrazolo[1,5-a]pyrimidine-3-carboxylate]: in assay [1], the IC50 is 371 µM.

For the molecule `COC(=O)c1cnn2c(O)cc(C=O)nc12` [SW396064-1, Methyl 5-formyl-7-hydroxypyrazolo[1,5-a]pyrimidine-3-carboxylate], the “IC50 … of nsp9” value in [1] is “No activity up to 500 μM”.

Consider `COC(=O)c1cnn2c(O)cc(/C=C/C(=O)OC(C)(C)C)nc12` [SW396065-1, Methyl (E)-5-(3-(tert-butoxy)-3-oxoprop-1-en-1-yl)-7-hydroxypyrazolo[1,5-a]pyrimidine-3-carboxylate], for which the “IC50 … of nsp9” value in [1] is listed as “No activity up to 500 μM”.

In the case of `COC(=O)c1cnn2c(O)cc(/C=C/C(=O)O)nc12` [SW396066-1, (E)-3-(7-hydroxy-3-(methoxycarbonyl)pyrazolo[1,5-a]pyrimidin-5-yl)acrylic acid], in [1], the “IC50 … of nsp9” value was “No activity up to 500 μM”.

With `COC(=O)c1cnn2c(O)cc(/C=C/C(N)=O)nc12` [SW396067-1, Methyl (E)-5-(3-amino-3-oxoprop-1-en-1-yl)-7-hydroxypyrazolo[1,5-a]pyrimidine-3-carboxylate], the “IC50 … of nsp9” value in assay [1] is “No activity up to 500 μM”.

For the molecule `COC(=O)c1cn(C)n2c(=O)cc(CCl)nc12` [SW396262-1, Methyl 5-(chloromethyl)-1-methyl-7-oxo-1,7-dihydropyrazolo[1,5-a]pyrimidine-3-carboxylate], in assay [1], the IC50 is over 500 µM.

With `COC(=O)c1cnn2c(OC)cc(CCl)nc12` [SW396271-1, Methyl 5-(chloromethyl)-7-methoxypyrazolo[1,5-a]pyrimidine-3-carboxylate], in assay [1], the IC50 was over 500 µM.

In the case of `COC(=O)c1cnn2c(O)cc(C(C)Cl)nc12` (stereo not shown) [SW396272-1, Methyl 5-(1-chloroethyl)-7-hydroxypyrazolo[1,5-a]pyrimidine-3-carboxylate], the “IC50 … of nsp9” value in assay [1] is listed as “No activity up to 500 μM”.

Take `COC(=O)c1cnn2c(O)cc(C#N)nc12` [SW396744-1, Methyl 5-cyano-7-hydroxypyrazolo[1,5-a]pyrimidine-3-carboxylate]: the “IC50 … of nsp9” value in assay [1] is given as “No activity up to 500 μM”.

Turning to `COC(=O)c1cnn2c(O)cc(CCCl)nc12` [SW398309-1, Methyl 5-(2-chloroethyl)-7-hydroxypyrazolo[1,5-a]pyrimidine-3-carboxylate], the “IC50 … of nsp9” value in assay [1] is listed as “No activity up to 500 μM”.

Consider `COC(=O)c1cnn2c(O)cc(CCO)nc12` [SW398310-1, Methyl 7-hydroxy-5-(2-hydroxyethyl)pyrazolo[1,5-a]pyrimidine-3-carboxylate], for which the “IC50 … of nsp9” value in assay [1] is given as “No activity up to 500 μM”.

In the case of `C#Cc1cc(O)n2ncc(C(=O)OC)c2n1` [SW461447-1, Methyl 5-ethynyl-7-hydroxypyrazolo[1,5-a]pyrimidine-3-carboxylate], the “IC50 … of nsp9” value in assay [1] is “No activity up to 500 μM”.

Regarding `COC(=O)c1cnn2c(O)cc(Cl)nc12` [SW461448-1], in assay [1], the “IC50 … of nsp9” value is listed as “No activity up to 500 μM”.

Regarding `CC(C)(C)[C@H](NC(=O)C(F)(F)F)C(=O)N1C[C@H]2[C@@H]([C@H]1C(=O)N[C@H](C#N)C[C@@H]1CCNC1=O)C2(C)C` [nirmatrelvir], the EC50 with SARS-CoV-2 was 0.075 µM. Moreover, the Ki at SARS-CoV-2 main protease is 0.003 µM.

As to `CCC(CC)COC(=O)[C@H](C)N[P@](=O)(OC[C@H]1O[C@@](C#N)(c2ccc3c(N)ncnn23)[C@H](O)[C@@H]1O)Oc1ccccc1` [remdesivir, reference compound], in the assay with SARS-CoV-2-Wu-1-zsGreen, the EC50 amounted to 0.64 µM. In addition, the “inhibition of NiRAN activity” value in the assay on NiRAN is given as “inhibit NiRAN activity”.
